Results reported in ChEMBL document CHEMBL5463729, “Data for DCP probe BAY 1753011” (2023).
Active and inactive are the calls of the source. The calls are words filed in the database; no cut-off is given here.

Assays:
[1] = biological target: Eukaryotic translation initiation factor 2-alpha kinase 3 (Homo sapiens) (UniProt Q9NZJ5); experiment: Inhibition of PEK(h) at 10.0 µM in the Eurofins Kinase panel; conditions: Compound concentration 10.0 uM
[2] = biological target: Leucine-rich repeat serine/threonine-protein kinase 2 (Homo sapiens) (UniProt Q5S007); experiment: Inhibition of LRRK2(h) at 10.0 µM in the Eurofins Kinase panel; conditions: Compound concentration 10.0 uM
[3] = biological target: Serine/threonine-protein kinase Chk1 (Homo sapiens) (UniProt O14757); experiment: Inhibition of CHK1(h) at 10.0 µM in the Eurofins Kinase panel; conditions: Compound concentration 10.0 uM
[4] = biological target: Interleukin-1 receptor-associated kinase 1 (Homo sapiens) (UniProt P51617); experiment: Inhibition of IRAK1(h) at 10.0 µM in the Eurofins Kinase panel; conditions: Compound concentration 10.0 uM
[5] = biological target: Serine/threonine-protein kinase N2 (Homo sapiens) (UniProt Q16513); experiment: Inhibition of PRK2(h) at 10.0 µM in the Eurofins Kinase panel; conditions: Compound concentration 10.0 uM
[6] = biological target: Serine/threonine-protein kinase 33 (Homo sapiens) (UniProt Q9BYT3); experiment: Inhibition of STK33(h) at 10.0 µM in the Eurofins Kinase panel; conditions: Compound concentration 10.0 uM
[7] = biological target: Myosin-IIIb (Homo sapiens) (UniProt Q8WXR4); experiment: Inhibition of MYO3B(h) at 10.0 µM in the Eurofins Kinase panel; conditions: Compound concentration 10.0 uM
[8] = biological target: Phosphatidylinositol 4,5-bisphosphate 3-kinase catalytic subunit gamma isoform (Homo sapiens) (UniProt P48736); experiment: Inhibition of PI3 Kinase (p120g)(h) at 10.0 µM in the Eurofins Kinase panel; conditions: Compound concentration 10.0 uM
[9] = biological target: Mitogen-activated protein kinase kinase kinase 9 (Homo sapiens) (UniProt P80192); experiment: Inhibition of MLK1(h) at 10.0 µM in the Eurofins Kinase panel; conditions: Compound concentration 10.0 uM
[10] = biological target: Tyrosine-protein kinase Lck (Homo sapiens) (UniProt P06239); experiment: Inhibition of Lck(h) activated at 10.0 µM in the Eurofins Kinase panel; conditions: Compound concentration 10.0 uM
[11] = biological target: Bone morphogenetic protein receptor type-1B (Homo sapiens) (UniProt O00238); experiment: Inhibition of ALK6(h) at 10.0 µM in the Eurofins Kinase panel; conditions: Compound concentration 10.0 uM
[12] = biological target: Calcium/calmodulin-dependent protein kinase type 1G (Homo sapiens) (UniProt Q96NX5); experiment: Inhibition of CaMKIgamma(h) at 10.0 µM in the Eurofins Kinase panel; conditions: Compound concentration 10.0 uM
[13] = biological target: D(1B) dopamine receptor (Homo sapiens) (UniProt P21918); conditions: Compound concentration 10.0 uM
[14] = biological target: Rho-associated protein kinase 1 (Homo sapiens) (UniProt Q13464); experiment: Inhibition of ROCK-I(h) at 10.0 µM in the Eurofins Kinase panel; conditions: Compound concentration 10.0 uM
[15] = biological target: Serine/threonine-protein kinase PLK4 (Homo sapiens) (UniProt O00444); experiment: Inhibition of Plk4(h) at 10.0 µM in the Eurofins Kinase panel; conditions: Compound concentration 10.0 uM
[16] = biological target: Serine/threonine-protein kinase 35 (Homo sapiens) (UniProt Q8TDR2); experiment: Inhibition of CLIK1(h) at 10.0 µM in the Eurofins Kinase panel; conditions: Compound concentration 10.0 uM
[17] = biological target: Dual specificity protein kinase TTK (Homo sapiens) (UniProt P33981); experiment: Inhibition of TTK(h) at 10.0 µM in the Eurofins Kinase panel; conditions: Compound concentration 10.0 uM
[18] = biological target: Receptor tyrosine-protein kinase erbB-4 (Homo sapiens) (UniProt Q15303); experiment: Inhibition of ErbB4(h) at 10.0 µM in the Eurofins Kinase panel; conditions: Compound concentration 10.0 uM
[19] = biological target: Glutamate NMDA receptor (Rattus norvegicus) (UniProt P35439+Q00959+Q00960+Q00961+Q62645+Q8VHN2+Q9R1M7); conditions: Compound concentration 10.0 uM
[20] = biological target: Muscarinic acetylcholine receptor M3 (Homo sapiens) (UniProt P20309); conditions: Compound concentration 10.0 uM
[21] = biological target: Serine-protein kinase ATM (Homo sapiens) (UniProt Q13315); experiment: Inhibition of ATM(h) at 10.0 µM in the Eurofins Kinase panel; conditions: Compound concentration 10.0 uM
[22] = biological target: Activin receptor type-1B (Homo sapiens) (UniProt P36896); experiment: Inhibition of ALK4(h) at 10.0 µM in the Eurofins Kinase panel; conditions: Compound concentration 10.0 uM
[23] = biological target: Mitogen-activated protein kinase kinase kinase kinase 5 (Homo sapiens) (UniProt Q9Y4K4); experiment: Inhibition of MAP4K5(h) at 10.0 µM in the Eurofins Kinase panel; conditions: Compound concentration 10.0 uM
[24] = biological target: Serine/threonine-protein kinase PLK3 (Homo sapiens) (UniProt Q9H4B4); experiment: Inhibition of Plk3(h) at 10.0 µM in the Eurofins Kinase panel; conditions: Compound concentration 10.0 uM
[25] = biological target: Serine/threonine-protein kinase B-raf (Homo sapiens) (UniProt P15056); experiment: Inhibition of B-Raf(h) at 10.0 µM in the Eurofins Kinase panel; conditions: Compound concentration 10.0 uM
[26] = biological target: T1, Muscarinic acetylcholine receptor M2 (Homo sapiens) (UniProt P08172); conditions: Compound concentration 10.0 uM
T1 sequence (whole entry): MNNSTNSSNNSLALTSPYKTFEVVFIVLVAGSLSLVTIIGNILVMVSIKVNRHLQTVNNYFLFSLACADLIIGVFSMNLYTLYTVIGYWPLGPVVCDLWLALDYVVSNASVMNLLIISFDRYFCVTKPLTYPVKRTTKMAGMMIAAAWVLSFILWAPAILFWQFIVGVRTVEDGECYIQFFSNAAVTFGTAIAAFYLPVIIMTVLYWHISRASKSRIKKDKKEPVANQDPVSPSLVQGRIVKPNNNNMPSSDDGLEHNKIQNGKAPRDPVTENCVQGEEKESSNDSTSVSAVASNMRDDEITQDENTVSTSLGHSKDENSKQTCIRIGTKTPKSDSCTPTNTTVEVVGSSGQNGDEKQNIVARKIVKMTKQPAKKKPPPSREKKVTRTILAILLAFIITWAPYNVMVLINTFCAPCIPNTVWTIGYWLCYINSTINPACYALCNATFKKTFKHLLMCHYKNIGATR

[27] = biological target: Tyrosine-protein kinase Yes (Homo sapiens) (UniProt P07947); experiment: Inhibition of Yes(h) at 10.0 µM in the Eurofins Kinase panel; conditions: Compound concentration 10.0 uM
Vasopressin V2 receptor = Vasopressin V2 receptor (Homo sapiens, UniProt P30518); experiment: Radiometric AVPR2 binding assay (Eurofins #287610)
[28] = biological target: Serine/threonine-protein kinase PAK 3 (Homo sapiens) (UniProt O75914); experiment: Inhibition of PAK3(h) at 10.0 µM in the Eurofins Kinase panel; conditions: Compound concentration 10.0 uM
[29] = biological target: Casein kinase I isoform gamma-2 (Homo sapiens) (UniProt P78368); experiment: Inhibition of CK1gamma2(h) at 10.0 µM in the Eurofins Kinase panel; conditions: Compound concentration 10.0 uM
[30] = biological target: Beta-2 adrenergic receptor (Homo sapiens) (UniProt P07550); conditions: Compound concentration 10.0 uM
[31] = biological target: Protein kinase C eta type (Homo sapiens) (UniProt P24723); experiment: Inhibition of PKCeta(h) at 10.0 µM in the Eurofins Kinase panel; conditions: Compound concentration 10.0 uM
[32] = biological target: Testis-specific serine/threonine-protein kinase 3 (Homo sapiens) (UniProt Q96PN8); experiment: Inhibition of TSSK3(h) at 10.0 µM in the Eurofins Kinase panel; conditions: Compound concentration 10.0 uM

D(1B) dopamine receptor (Homo sapiens), sequence (P21918 whole entry): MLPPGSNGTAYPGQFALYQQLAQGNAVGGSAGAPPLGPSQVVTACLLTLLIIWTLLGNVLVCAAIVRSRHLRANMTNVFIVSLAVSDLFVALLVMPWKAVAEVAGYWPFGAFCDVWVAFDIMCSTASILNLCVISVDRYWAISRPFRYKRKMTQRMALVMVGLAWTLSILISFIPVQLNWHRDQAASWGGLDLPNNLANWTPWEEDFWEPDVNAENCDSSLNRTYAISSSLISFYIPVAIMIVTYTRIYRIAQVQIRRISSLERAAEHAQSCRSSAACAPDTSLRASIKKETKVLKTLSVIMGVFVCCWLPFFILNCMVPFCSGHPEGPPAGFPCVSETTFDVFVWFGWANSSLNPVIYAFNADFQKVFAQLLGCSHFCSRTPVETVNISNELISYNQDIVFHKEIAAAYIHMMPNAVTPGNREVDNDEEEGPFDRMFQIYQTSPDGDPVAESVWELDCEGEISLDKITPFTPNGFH
Muscarinic acetylcholine receptor M3 (Homo sapiens), sequence (P20309 whole entry, looked up): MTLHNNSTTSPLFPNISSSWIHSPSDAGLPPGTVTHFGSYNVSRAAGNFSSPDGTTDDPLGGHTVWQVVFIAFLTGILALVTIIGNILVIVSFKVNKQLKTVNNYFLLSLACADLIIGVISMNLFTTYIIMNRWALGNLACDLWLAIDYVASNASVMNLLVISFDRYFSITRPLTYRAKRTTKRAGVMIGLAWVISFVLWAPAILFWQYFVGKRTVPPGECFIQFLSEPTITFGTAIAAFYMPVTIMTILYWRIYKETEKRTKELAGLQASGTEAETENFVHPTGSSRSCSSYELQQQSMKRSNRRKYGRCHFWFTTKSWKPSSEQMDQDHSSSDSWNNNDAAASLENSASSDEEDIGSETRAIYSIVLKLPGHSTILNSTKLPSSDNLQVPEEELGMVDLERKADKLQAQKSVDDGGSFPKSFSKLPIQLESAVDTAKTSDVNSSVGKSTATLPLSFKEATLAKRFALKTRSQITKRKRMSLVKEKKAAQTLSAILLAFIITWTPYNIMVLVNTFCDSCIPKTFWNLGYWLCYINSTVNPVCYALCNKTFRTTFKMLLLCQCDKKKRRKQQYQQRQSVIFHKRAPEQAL
Receptor tyrosine-protein kinase erbB-4 (Homo sapiens), sequence (Q15303 whole entry): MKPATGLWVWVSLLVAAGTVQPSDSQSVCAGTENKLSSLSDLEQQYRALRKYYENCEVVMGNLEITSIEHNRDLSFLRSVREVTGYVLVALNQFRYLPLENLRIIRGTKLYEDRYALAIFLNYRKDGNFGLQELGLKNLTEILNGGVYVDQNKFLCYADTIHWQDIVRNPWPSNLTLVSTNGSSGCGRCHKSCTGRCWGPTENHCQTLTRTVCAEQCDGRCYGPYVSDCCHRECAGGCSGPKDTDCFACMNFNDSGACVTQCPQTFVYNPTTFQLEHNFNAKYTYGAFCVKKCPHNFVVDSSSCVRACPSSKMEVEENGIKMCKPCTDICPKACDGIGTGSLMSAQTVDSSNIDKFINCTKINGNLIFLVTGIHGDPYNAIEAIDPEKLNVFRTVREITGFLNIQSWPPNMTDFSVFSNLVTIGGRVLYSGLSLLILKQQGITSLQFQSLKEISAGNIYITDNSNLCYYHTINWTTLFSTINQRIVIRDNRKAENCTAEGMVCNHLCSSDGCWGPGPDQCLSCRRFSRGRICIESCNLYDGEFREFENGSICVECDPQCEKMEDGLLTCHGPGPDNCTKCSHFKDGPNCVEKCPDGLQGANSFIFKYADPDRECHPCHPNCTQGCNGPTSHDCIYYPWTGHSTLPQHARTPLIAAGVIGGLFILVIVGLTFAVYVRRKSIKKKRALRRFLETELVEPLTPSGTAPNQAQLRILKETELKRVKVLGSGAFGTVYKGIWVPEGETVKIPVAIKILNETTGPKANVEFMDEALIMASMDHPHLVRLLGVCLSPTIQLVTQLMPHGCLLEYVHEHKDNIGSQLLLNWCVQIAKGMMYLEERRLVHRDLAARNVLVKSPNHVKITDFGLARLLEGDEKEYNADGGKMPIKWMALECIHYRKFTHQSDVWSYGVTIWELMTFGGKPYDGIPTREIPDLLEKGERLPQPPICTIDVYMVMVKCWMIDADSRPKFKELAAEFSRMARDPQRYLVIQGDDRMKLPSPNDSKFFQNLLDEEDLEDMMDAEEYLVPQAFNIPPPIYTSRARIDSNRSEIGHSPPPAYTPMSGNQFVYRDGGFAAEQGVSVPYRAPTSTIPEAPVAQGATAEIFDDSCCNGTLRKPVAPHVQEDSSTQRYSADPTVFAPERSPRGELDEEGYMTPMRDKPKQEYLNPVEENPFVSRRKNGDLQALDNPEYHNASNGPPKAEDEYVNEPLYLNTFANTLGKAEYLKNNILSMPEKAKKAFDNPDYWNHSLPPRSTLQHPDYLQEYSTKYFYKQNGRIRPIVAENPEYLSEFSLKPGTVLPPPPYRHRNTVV
Serine/threonine-protein kinase Chk1 (Homo sapiens), sequence (O14757 whole entry): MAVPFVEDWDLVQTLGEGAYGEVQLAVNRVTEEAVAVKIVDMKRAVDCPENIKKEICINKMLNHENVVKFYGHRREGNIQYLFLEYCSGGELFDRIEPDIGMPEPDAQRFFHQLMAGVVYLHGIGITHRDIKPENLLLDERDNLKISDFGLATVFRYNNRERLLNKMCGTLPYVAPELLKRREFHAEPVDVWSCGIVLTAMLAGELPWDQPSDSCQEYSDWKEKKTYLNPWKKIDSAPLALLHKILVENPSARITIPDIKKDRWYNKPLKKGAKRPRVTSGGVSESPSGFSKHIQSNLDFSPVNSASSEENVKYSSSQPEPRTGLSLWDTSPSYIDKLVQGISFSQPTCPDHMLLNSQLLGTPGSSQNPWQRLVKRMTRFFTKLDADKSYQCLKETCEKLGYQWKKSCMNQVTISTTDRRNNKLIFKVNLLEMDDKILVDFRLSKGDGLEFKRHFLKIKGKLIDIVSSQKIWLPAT
Bone morphogenetic protein receptor type-1B (Homo sapiens), sequence (O00238 whole entry): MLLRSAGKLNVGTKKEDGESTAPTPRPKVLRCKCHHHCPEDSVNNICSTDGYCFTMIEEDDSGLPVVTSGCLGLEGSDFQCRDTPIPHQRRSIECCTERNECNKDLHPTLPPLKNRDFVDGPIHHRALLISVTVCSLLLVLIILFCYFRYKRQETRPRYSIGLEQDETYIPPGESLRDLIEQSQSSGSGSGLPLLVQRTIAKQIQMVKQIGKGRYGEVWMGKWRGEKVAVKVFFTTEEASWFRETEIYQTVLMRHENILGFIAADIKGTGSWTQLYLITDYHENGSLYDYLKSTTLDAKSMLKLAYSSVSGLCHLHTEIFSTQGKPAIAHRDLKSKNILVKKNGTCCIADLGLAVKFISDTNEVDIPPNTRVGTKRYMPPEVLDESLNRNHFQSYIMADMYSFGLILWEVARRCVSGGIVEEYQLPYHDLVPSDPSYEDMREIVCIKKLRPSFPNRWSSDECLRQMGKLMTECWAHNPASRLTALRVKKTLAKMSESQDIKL
Calcium/calmodulin-dependent protein kinase type 1G (Homo sapiens), sequence (Q96NX5 whole entry): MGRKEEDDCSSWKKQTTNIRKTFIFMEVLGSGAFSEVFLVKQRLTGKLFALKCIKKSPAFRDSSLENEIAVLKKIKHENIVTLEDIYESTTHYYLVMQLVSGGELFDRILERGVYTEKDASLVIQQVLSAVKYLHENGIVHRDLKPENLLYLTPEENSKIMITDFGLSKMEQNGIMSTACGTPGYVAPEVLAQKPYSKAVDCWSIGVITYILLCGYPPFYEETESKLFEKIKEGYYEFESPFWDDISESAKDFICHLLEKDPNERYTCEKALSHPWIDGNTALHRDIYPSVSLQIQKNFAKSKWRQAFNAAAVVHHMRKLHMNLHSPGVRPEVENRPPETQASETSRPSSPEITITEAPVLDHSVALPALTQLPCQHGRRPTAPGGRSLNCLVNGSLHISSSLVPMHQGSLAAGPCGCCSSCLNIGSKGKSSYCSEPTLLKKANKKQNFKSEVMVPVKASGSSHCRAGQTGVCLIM
Serine/threonine-protein kinase PAK 3 (Homo sapiens), sequence (O75914 whole entry, looked up, canonical isoform): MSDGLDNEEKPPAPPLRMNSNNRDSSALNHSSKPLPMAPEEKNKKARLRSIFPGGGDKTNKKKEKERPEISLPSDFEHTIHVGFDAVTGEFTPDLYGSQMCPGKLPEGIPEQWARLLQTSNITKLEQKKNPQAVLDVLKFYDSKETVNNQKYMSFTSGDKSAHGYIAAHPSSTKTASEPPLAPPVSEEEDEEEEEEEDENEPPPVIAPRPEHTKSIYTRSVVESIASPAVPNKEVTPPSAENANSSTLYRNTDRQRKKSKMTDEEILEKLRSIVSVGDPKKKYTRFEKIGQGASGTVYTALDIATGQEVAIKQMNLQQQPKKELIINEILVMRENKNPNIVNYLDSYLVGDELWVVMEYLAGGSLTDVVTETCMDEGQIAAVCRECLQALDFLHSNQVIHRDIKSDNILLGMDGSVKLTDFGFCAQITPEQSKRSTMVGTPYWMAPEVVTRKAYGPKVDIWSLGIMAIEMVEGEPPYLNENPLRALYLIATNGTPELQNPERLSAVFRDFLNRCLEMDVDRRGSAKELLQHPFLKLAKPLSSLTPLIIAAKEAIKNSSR
Vasopressin V2 receptor, sequence (P30518 whole entry): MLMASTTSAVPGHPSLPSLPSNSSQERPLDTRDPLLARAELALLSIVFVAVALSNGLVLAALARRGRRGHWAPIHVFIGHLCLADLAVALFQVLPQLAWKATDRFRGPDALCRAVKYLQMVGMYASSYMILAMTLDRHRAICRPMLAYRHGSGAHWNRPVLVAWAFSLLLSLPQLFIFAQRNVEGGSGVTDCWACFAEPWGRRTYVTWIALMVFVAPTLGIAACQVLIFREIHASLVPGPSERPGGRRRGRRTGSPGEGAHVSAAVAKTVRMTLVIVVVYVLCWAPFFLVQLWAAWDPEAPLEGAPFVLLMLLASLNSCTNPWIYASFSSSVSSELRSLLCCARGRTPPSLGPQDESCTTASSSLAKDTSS

| Compound | inhibition [1] | inhibition [2] | inhibition [3] | inhibition [4] | inhibition [5] | inhibition [6] | inhibition [7] | inhibition [8] | inhibition [9] | inhibition [10] | inhibition [11] | inhibition [12] | inhibition [13] | inhibition [14] | inhibition [15] | inhibition [16] | inhibition [17] | inhibition [18] | inhibition [19] | inhibition [20] | further results |
| --- | --- | --- | --- | --- | --- | --- | --- | --- | --- | --- | --- | --- | --- | --- | --- | --- | --- | --- | --- | --- | --- |
| O=c1n(Cc2cncn2-c2cccc(Cl)c2)nc(-c2ccc(Cl)cc2)n1C[C@H](O)C(F)(F)F | -1.49% | 10.3% | 1.73% | 1.24% | 27.4% | 6.15% | 6.86% | 9.44% | -1.25% | 2.09% | -0.99% | 0.71% | 19.6% | -3.19% | 10.6% | 7.34% | -7.11% | -8.65% | -8% | -4.25% | inhibition [21]: -1.92%; inhibition [22]: 3.01%; inhibition [23]: -1.83%; inhibition [24]: -0.3%; inhibition [25]: -2.97%; inhibition [26]: 17%; inhibition [27]: -2.72%; Ki (Vasopressin V2 receptor): > 10 µM (not active); inhibition [28]: 7.29%; inhibition [29]: -1.25%; inhibition [30]: 0%; inhibition [31]: 10.8%; inhibition [32]: -6.06% |
| C[C@H](O)c1nc(Cn2nc(-c3ccc(Cl)cc3)n(C[C@H](O)C(F)(F)F)c2=O)nn1-c1cccc(Cl)c1 [PECAVAPTAN] | 1.82% | 5.14% | 2.42% | -0.22% | 7.5% | 6.36% | 2.49% | 14.1% | 3.5% | -0.21% | -1.01% | -0.43% | 1.94% | -2.67% | -5.71% | 9.3% | 2.07% | -4.41% | 2% | 28.2% | inhibition [21]: 1.99%; inhibition [22]: 4.03%; inhibition [23]: 6.21%; inhibition [24]: 0.49%; inhibition [25]: -4.03%; inhibition [26]: 7%; inhibition [27]: -6.93%; Ki (Vasopressin V2 receptor): 0.0006 µM (active); inhibition [28]: 1.73%; inhibition [29]: 4.6%; inhibition [30]: 9%; inhibition [31]: 4.39%; inhibition [32]: -7.5% |
